ChEMBL document CHEMBL3046332, “Ultrastructural effects of pyridalyl, an insecticidal agent, on epidermal cells of Spodoptera litura larvae and cultured insect cells Sf9” (J Pestic Sci, 2006)
Active and inactive are the calls of the source.

How the values were obtained:
Spodoptera litura [1] = experiment: Insecticidal activity against Spodoptera litura larvae assessed as epidermal cell nuclear change at 100 ng measured after 2 hr by ultrastructural analysis/electron microscopy; assay type: functional, organism-based
Spodoptera litura [2] = experiment: Insecticidal activity against Spodoptera litura larvae assessed as symptoms at 100 ng measured after 2 hr; assay type: functional, organism-based
Sf9 [3] = experiment: Ultrastructural effect on Spodoptera frugiperda (fall armyworm) sf9 cells assessed as dissociation of polysomes and nuclear swelling at 1 uM measured 4 to 6 hr by electron microscopy; assay type: functional, cell-based
Sf9 [4] = experiment: Ultrastructural effect on Spodoptera frugiperda (fall armyworm) sf9 cells assessed as mitochondria with disarranged cristae at 1 uM measured 8 hr by electron microscopy; assay type: functional, cell-based
Sf9 [5] = experiment: Ultrastructural effect on Spodoptera frugiperda (fall armyworm) sf9 cells assessed as swollen mitochondria at 1 uM measured for 8 hr by electron microscopy; assay type: functional, cell-based
Sf9 [6] = experiment: Ultrastructural effect on Spodoptera frugiperda (fall armyworm) sf9 cells assessed as low density matrix mitochondria at 1 uM measured 4 to 6 hr by electron microscopy; assay type: functional, cell-based
Sf9 [7] = experiment: Ultrastructural effect on Spodoptera frugiperda (fall armyworm) sf9 cells assessed as decrease in mitochondrial number at 1 uM measured 4 to 6 hr by electron microscopy; assay type: functional, cell-based
Sf9 [8] = experiment: Ultrastructural effect on Spodoptera frugiperda (fall armyworm) sf9 cells assessed as enlarged mitochondria at 1 uM measured 4 to 6 hr by electron microscopy; assay type: functional, cell-based
Spodoptera litura [9] = experiment: Insecticidal activity against Spodoptera litura larvae assessed as midgut and ganglia at 100 ng measured after 6 hr by ultrastructural analysis/electron microscopy; assay type: functional, organism-based
Spodoptera litura [10] = experiment: Insecticidal activity against Spodoptera litura larvae assessed as muscular and fat tissues underlying the epidermis at 100 ng measured after 6 hr by ultrastructural analysis/electron microscopy; assay type: functional, organism-based; details: Adipose tissue
Spodoptera litura [11] = experiment: Insecticidal activity against Spodoptera litura larvae assessed as dorsal aorta at 100 ng measured after 6 hr by ultrastructural analysis/electron microscopy; assay type: functional, organism-based
Spodoptera litura [12] = experiment: Insecticidal activity against Spodoptera litura larvae assessed as shorten microvillous projections epidermal cell at 100 ng measured after 6 hr by ultrastructural analysis/electron; assay type: functional, organism-based
Spodoptera litura [13] = experiment: Insecticidal activity against Spodoptera litura larvae assessed as condensed and shrunken epidermal cell at 100 ng measured after 6 hr by ultrastructural analysis/electron microscopy; assay type: functional, organism-based
Spodoptera litura [14] = experiment: Insecticidal activity against Spodoptera litura larvae assessed as diluted Golgi apparatus in epidermal cell at 100 ng measured after 6 hr by ultrastructural analysis/electron microscopy; assay type: functional, organism-based
Spodoptera litura [15] = experiment: Insecticidal activity against Spodoptera litura larvae assessed as diluted rough endoplasmic reticula in epidermal cell at 100 ng measured after 6 hr by ultrastructural analysis/electron microscopy; assay type: functional, organism-based
Spodoptera litura [16] = experiment: Insecticidal activity against Spodoptera litura larvae assessed as swollen mitochondria in epidermal cell at 100 ng measured after 6 hr by ultrastructural analysis/electron microscopy; assay type: functional, organism-based
Spodoptera litura [17] = experiment: Insecticidal activity against Spodoptera litura larvae assessed as paralysis at 100 ng measured after 6 hr; assay type: functional, organism-based
Spodoptera litura [18] = experiment: Insecticidal activity against Spodoptera litura larvae assessed as enlarged mitochondria in epidermal cell at 100 ng measured after 4 hr by ultrastructural analysis/electron microscopy; assay type: functional, organism-based
Spodoptera litura [19] = experiment: Insecticidal activity against Spodoptera litura larvae assessed as condensed nuclei in epidermal cell at 100 ng measured after 4 hr by ultrastructural analysis/electron microscopy; assay type: functional, organism-based
Spodoptera litura [20] = experiment: Insecticidal activity against Spodoptera litura larvae assessed as decrease in mobility at 100 ng measured after 4 hr; assay type: functional, organism-based
Spodoptera litura [21] = experiment: Insecticidal activity against Spodoptera litura larvae assessed intracytoplasmic ultrastructures of the epidermal cell at 100 ng measured after 2 hr by ultrastructural analysis/electron microscopy; assay type: functional, organism-based

Measured: Activity

FC(F)(F)c1ccc(OCCCOc2c(Cl)cc(OCC=C(Cl)Cl)cc2Cl)nc1
inactive: Spodoptera litura [1] | Spodoptera litura [2] | Spodoptera litura [9] | Spodoptera litura [10] | Spodoptera litura [11] | Spodoptera litura [21]
active: all other assays above
